According to patent US20070049564A1 (Wyeth, priority 2005, published 2007):
≈ marks a conversion by molar mass, not a printed value. Like-named read-outs stand apart in the source and are kept apart here.

How the values were obtained:
Assay in all cases: MIC, broth microdilution
S. pneumoniae* GC 4465 = conditions: Streptococcus pneumoniae
E. coli GC 4559 = conditions: Escherichia coli
S. aureus GC 2216 = conditions: Staphylococcus aureus
E. coli GC 2232 = conditions: Escherichia coli
Description: (§1) Antimicrobial susceptibility testing. The in vitro activities of the antibiotics are determined by the broth microdilution method as recommended by the National Committee for Clinical Laboratory Standards (NCCLS) (1). Mueller-Hinton II broth (MHBII)(BBL Cockeysville, Md.) is the medium employed in the testing procedures. Microtiter plates containing serial dilutions of each antimicrobial agent are inoculated with each organism to yield the appropriate density (10^5 CFU/ml) in a 100 μl final volume. The plates are incubated for 18-22 hours at 35° C. in ambient air.
Representative compounds were first incubated in mouse serum for an hour prior to the in vitro testing against a panel of selected gram-positive and gram-negative bacteria strains. All compounds were also pre-incubated in water for an hour prior to testing as control. Representative compounds of Formula I were incubated in human serum prior to MIC determination.

E. faecalis GC 2267 = conditions: Enterococcus faecalis
S. aureus GC 6466 = conditions: Staphylococcus aureus
P. aeruginosa GC 2214 = conditions: Pseudomonas aeruginosa
E. coli GC 2203 = conditions: Escherichia coli
S. epidermidis GC 4935 = conditions: Staphylococcus epidermidis
E. coli GC 6465 = conditions: Escherichia coli
E. faecalis GC 2242 = conditions: Enterococcus faecalis
E. coli GC 2234 = conditions: Escherichia coli
E. coli GC 4560 = conditions: Escherichia coli
S. aureus GC 6467 = conditions: Staphylococcus aureus
Description: as §1
Representative compounds were first incubated in mouse serum for an hour prior to the in vitro testing against a panel of selected gram-positive and gram-negative bacteria strains. All compounds were also pre-incubated in water for an hour prior to testing as control.

E. coli GC 2272 = conditions: Escherichia coli
S. aureus GC 4536 = conditions: Staphylococcus aureus
E. coli GC 2231 = conditions: Escherichia coli
S. pneumoniae+ GC 4465 = conditions: Streptococcus pneumoniae
S. aureus GC 1131 = conditions: Staphylococcus aureus
[1] = read-out: MINIMAL INHIBITORY CONCENTRATION MIC, Human Serum
[2] = read-out: MINIMAL INHIBITORY CONCENTRATION MIC, Mouse Serum
[3] = read-out: MINIMAL INHIBITORY CONCENTRATION MIC, Water

CCCCOC(=O)N(CC(=O)Nc1cc(N(C)C)c2c(c1O)C(=O)C1=C(O)[C@]3(O)C(=O)C(C(N)=O)=C(O)[C@@H](N(C)C)[C@@H]3C[C@@H]1C2)C(C)(C)C [Example 58, butyl 2-{[(5aR,6aS,7S,10aS)-9-(aminocarbonyl)-4,7-bis(dimethylamino)-1,8,10a,11-tetrahydroxy-10,12-dioxo-5,5a,6,6a,7,10,10a,12-octahydrotetracen-2-yl]amino}-2-oxoethyl(tert-butyl)carbamate]
MIC (S. pneumoniae* GC 4465; [1]): 4 µg/mL (≈ 5.83 µM) | MIC (S. pneumoniae* GC 4465; [2]): 2 µg/mL (≈ 2.92 µM) | MIC (S. pneumoniae* GC 4465; [3]): 2 µg/mL (≈ 2.92 µM) | MIC (E. coli GC 4559; GC4559, read-out: MINIMAL INHIBITORY CONCENTRATION MIC, Human Serum): > 64 µg/mL | MIC (E. coli GC 4559; GC4559, read-out: MINIMAL INHIBITORY CONCENTRATION MIC, Mouse Serum): > 64 µg/mL | MIC (E. coli GC 4559; GC4559, read-out: MINIMAL INHIBITORY CONCENTRATION MIC, Water): > 64 µg/mL | MIC (S. aureus GC 2216; GC2216, read-out: MINIMAL INHIBITORY CONCENTRATION MIC, Human Serum): 4 µg/mL (≈ 5.83 µM) | MIC (S. aureus GC 2216; GC2216, read-out: MINIMAL INHIBITORY CONCENTRATION MIC, Mouse Serum): 2 µg/mL (≈ 2.92 µM) | MIC (S. aureus GC 2216; GC2216, read-out: MINIMAL INHIBITORY CONCENTRATION MIC, Water): 4 µg/mL (≈ 5.83 µM) | MIC (E. coli GC 2232; GC2232, read-out: MINIMAL INHIBITORY CONCENTRATION MIC, Human Serum): > 64 µg/mL | MIC (E. coli GC 2232; GC2232, read-out: MINIMAL INHIBITORY CONCENTRATION MIC, Mouse Serum): > 64 µg/mL | MIC (E. coli GC 2232; GC2232, read-out: MINIMAL INHIBITORY CONCENTRATION MIC, Water): > 64 µg/mL | MIC (E. faecalis GC 2267; GC2267, read-out: MINIMAL INHIBITORY CONCENTRATION MIC, Human Serum): 4 µg/mL (≈ 5.83 µM) | MIC (E. faecalis GC 2267; GC2267, read-out: MINIMAL INHIBITORY CONCENTRATION MIC, Mouse Serum): 2 µg/mL (≈ 2.92 µM) | MIC (E. faecalis GC 2267; GC2267, read-out: MINIMAL INHIBITORY CONCENTRATION MIC, Water): 4 µg/mL (≈ 5.83 µM) | MIC (S. aureus GC 6466; GC6466, read-out: MINIMAL INHIBITORY CONCENTRATION MIC, Human Serum): 4 µg/mL (≈ 5.83 µM) | MIC (S. aureus GC 6466; GC6466, read-out: MINIMAL INHIBITORY CONCENTRATION MIC, Mouse Serum): 2 µg/mL (≈ 2.92 µM) | MIC (S. aureus GC 6466; GC6466, read-out: MINIMAL INHIBITORY CONCENTRATION MIC, Water): 4 µg/mL (≈ 5.83 µM) | MIC (P. aeruginosa GC 2214; GC2214, read-out: MINIMAL INHIBITORY CONCENTRATION MIC, Human Serum): > 64 µg/mL | MIC (P. aeruginosa GC 2214; GC2214, read-out: MINIMAL INHIBITORY CONCENTRATION MIC, Mouse Serum): > 64 µg/mL | MIC (P. aeruginosa GC 2214; GC2214, read-out: MINIMAL INHIBITORY CONCENTRATION MIC, Water): > 64 µg/mL | MIC (E. coli GC 2203; GC2203, read-out: MINIMAL INHIBITORY CONCENTRATION MIC, Human Serum): > 64 µg/mL | MIC (E. coli GC 2203; GC2203, read-out: MINIMAL INHIBITORY CONCENTRATION MIC, Mouse Serum): > 64 µg/mL | MIC (E. coli GC 2203; GC2203, read-out: MINIMAL INHIBITORY CONCENTRATION MIC, Water): > 64 µg/mL | MIC (S. epidermidis GC 4935; GC4935, read-out: MINIMAL INHIBITORY CONCENTRATION MIC, Human Serum): 4 µg/mL (≈ 5.83 µM) | MIC (S. epidermidis GC 4935; GC4935, read-out: MINIMAL INHIBITORY CONCENTRATION MIC, Mouse Serum): 4 µg/mL (≈ 5.83 µM) | MIC (S. epidermidis GC 4935; GC4935, read-out: MINIMAL INHIBITORY CONCENTRATION MIC, Water): 8 µg/mL (≈ 11.7 µM) | MIC (E. coli GC 6465; GC6465, read-out: MINIMAL INHIBITORY CONCENTRATION MIC, Human Serum): > 64 µg/mL | MIC (E. coli GC 6465; GC6465, read-out: MINIMAL INHIBITORY CONCENTRATION MIC, Mouse Serum): > 64 µg/mL | MIC (E. coli GC 6465; GC6465, read-out: MINIMAL INHIBITORY CONCENTRATION MIC, Water): > 64 µg/mL | MIC (E. faecalis GC 2242; GC2242, read-out: MINIMAL INHIBITORY CONCENTRATION MIC, Human Serum): 4 µg/mL (≈ 5.83 µM) | MIC (E. faecalis GC 2242; GC2242, read-out: MINIMAL INHIBITORY CONCENTRATION MIC, Mouse Serum): 2 µg/mL (≈ 2.92 µM) | MIC (E. faecalis GC 2242; GC2242, read-out: MINIMAL INHIBITORY CONCENTRATION MIC, Water): 4 µg/mL (≈ 5.83 µM) | MIC (E. coli GC 2234; GC2234, read-out: MINIMAL INHIBITORY CONCENTRATION MIC, Human Serum): > 64 µg/mL | MIC (E. coli GC 2234; GC2234, read-out: MINIMAL INHIBITORY CONCENTRATION MIC, Mouse Serum): > 64 µg/mL | MIC (E. coli GC 2234; GC2234, read-out: MINIMAL INHIBITORY CONCENTRATION MIC, Water): > 64 µg/mL | MIC (E. coli GC 4560; GC4560, read-out: MINIMAL INHIBITORY CONCENTRATION MIC, Human Serum): 4 µg/mL (≈ 5.83 µM) | MIC (E. coli GC 4560; GC4560, read-out: MINIMAL INHIBITORY CONCENTRATION MIC, Mouse Serum): 4 µg/mL (≈ 5.83 µM) | MIC (E. coli GC 4560; GC4560, read-out: MINIMAL INHIBITORY CONCENTRATION MIC, Water): 4 µg/mL (≈ 5.83 µM) | MIC (S. aureus GC 6467; GC6467, read-out: MINIMAL INHIBITORY CONCENTRATION MIC, Human Serum): 4 µg/mL (≈ 5.83 µM) | MIC (S. aureus GC 6467; GC6467, read-out: MINIMAL INHIBITORY CONCENTRATION MIC, Mouse Serum): 2 µg/mL (≈ 2.92 µM) | MIC (S. aureus GC 6467; GC6467, read-out: MINIMAL INHIBITORY CONCENTRATION MIC, Water): 4 µg/mL (≈ 5.83 µM) | MIC (E. coli GC 2272; GC2272, read-out: MINIMAL INHIBITORY CONCENTRATION MIC, Human Serum): > 64 µg/mL | MIC (E. coli GC 2272; GC2272, read-out: MINIMAL INHIBITORY CONCENTRATION MIC, Mouse Serum): > 64 µg/mL | MIC (E. coli GC 2272; GC2272, read-out: MINIMAL INHIBITORY CONCENTRATION MIC, Water): > 64 µg/mL | MIC (S. aureus GC 4536; GC4536, read-out: MINIMAL INHIBITORY CONCENTRATION MIC, Human Serum): 4 µg/mL (≈ 5.83 µM) | MIC (S. aureus GC 4536; GC4536, read-out: MINIMAL INHIBITORY CONCENTRATION MIC, Mouse Serum): 2 µg/mL (≈ 2.92 µM) | MIC (S. aureus GC 4536; GC4536, read-out: MINIMAL INHIBITORY CONCENTRATION MIC, Water): 4 µg/mL (≈ 5.83 µM) | MIC (E. coli GC 2231; GC2231, read-out: MINIMAL INHIBITORY CONCENTRATION MIC, Human Serum): > 64 µg/mL | MIC (E. coli GC 2231; GC2231, read-out: MINIMAL INHIBITORY CONCENTRATION MIC, Mouse Serum): > 64 µg/mL | MIC (E. coli GC 2231; GC2231, read-out: MINIMAL INHIBITORY CONCENTRATION MIC, Water): > 64 µg/mL | MIC (S. pneumoniae+ GC 4465; [1]): 4 µg/mL (≈ 5.83 µM) | MIC (S. pneumoniae+ GC 4465; [2]): 4 µg/mL (≈ 5.83 µM) | MIC (S. pneumoniae+ GC 4465; [3]): 8 µg/mL (≈ 11.7 µM) | MIC (S. aureus GC 1131; GC1131, read-out: MINIMAL INHIBITORY CONCENTRATION MIC, Human Serum): 4 µg/mL (≈ 5.83 µM) | MIC (S. aureus GC 1131; GC1131, read-out: MINIMAL INHIBITORY CONCENTRATION MIC, Mouse Serum): 2 µg/mL (≈ 2.92 µM) | MIC (S. aureus GC 1131; GC1131, read-out: MINIMAL INHIBITORY CONCENTRATION MIC, Water): 4 µg/mL (≈ 5.83 µM)
